According to US4153710A, “N-(4-[2-(pyrazole-1-carbonamide)-ethyl]-benzenesulphonyl)-urea” (Starogardzkie Zaklady Farmaceutyczne POLFA, priority 1976, dated 1979):
Several values for one entry are separate records, joined by “and”; a condition that tells them apart may be missing. Equal values may be shown once.

Key:
[1] = test system: oxygen consumption in mitochondria of a rat's liver; assay: Oxygen consumption of rat liver mitochondria; assay type: biochemical; conditions: for Ki: rat liver mitochondria
Experimental: 2-oxoglutaran 2 mM, ADP 1 mM, mitochondria | protein 4 mg/m. […] The

[2] = test system: calcium transmission in mitochondria of a rat's liver; assay: Calcium transmission to rat liver mitochondria; assay type: biochemical; conditions: for % of inhibition, calcium transmission: medium with CaCl 300 nmoles/ml; for Ki / preference of inhibition: calcium transmission versus oxidizing processes: rat liver mitochondria
Experimental: Sucrose 170mM, KCl 10 mM, MgCl2 […], K2 HPO 5 mM, EGTA 0.01 mM
2-oxoglutaran 2 mM, ADP 1 mM, mitochondria
protein 4 mg/m. Temperature 25° C.
of hydrogen ion consumption. The calcium transmission to mitochondria was
studied with two methods; in a continuous way with a Radiometer calcium
electrode type F2112 or with an isotopic method.
*The medium contained Ca Cl 300 nmoles/ml.

[3] = test system: oxidizing phosphorylation in mitochondria of a rat's liver; assay: Oxidizing phosphorylation of rat liver mitochondria; assay type: biochemical; conditions: for Ki: rat liver mitochondria
Experimental: 2-oxoglutaran 2 mM, ADP 1 mM, mitochondria | protein 4 mg/m. […] The | oxidizing phosphorylation speed was determined by means of the measuremen | of hydrogen ion consumption. The calcium transmission to mitochondria was […]

[4] = test system: blood-glucose concentration; assay: Decrease in blood-glucose concentration in rats after oral dose (Table 1; ED30 rats Table 2); assay type: in vivo; conditions: Rattus norvegicus, oral, read-out: Effective oral doses ED30
Text: (§1) The hypoglycemic activity of N-{4-[2-(pyrazole-1-carbonamide)-ethyl]-benzenesulphonyl}-ureas prepared according to the present invention can be noticed after their oral administration to mice, rats, rabbits and people and when determining the glucose concentration in blood with a known enzymatic method using glucose oxidase.
The exemplary comparison of effective doses (ED30) and the effect of oral dose size of the compounds prepared according to the present invention with Glibornuride, which is distinguished by its high effectiveness and good tolerance when administered to people, on the glucose concentration in the blood of rats, is given in Table 1.

[5] = test system: free fatty acids concentration; assay: Free fatty acids in normal men volunteers (Table 7); assay type: in vivo; conditions: oral 5 mg SPC-5002 or 12.5 mg Glibornuride
Experimental: (§2) When administered to normal men volunteers it has been stated that 60 minutes after the administration of SPC-5002 a 5 mg oral dose causes the decrease in blood-glucose of 28% in comparision to the starting value and after 90 minutes it reaches 33% (Table 7). Whereas Glibornuride employed in a dose 2.5 times as big on peak of its activity decreases the glucose blood level only of 19%. It can clearly be noticed that there is a positive correlation between the glycemic and insulin level curves. Both examined preparations cause a significant decrease in free fatty acids in blood. […] 60 and 90 minutes after the SPC-5002 administration, the blood-glycose level is decreased to 33 and 52% while in the Placebo group it is maintained in the range of 13-14%.
(§3) The comparison of glucose, insulin and free fatty acids concentration in
(§4) normal men after the oral administration of 5 mg of SPC-5002 or 12.5 mg

insulin concentration = assay: Insulin in normal men volunteers (Table 7); assay type: in vivo; conditions: oral 5 mg SPC-5002 or 12.5 mg Glibornuride
Experimental: as §2, §3, §4

[6] = test system: blood-glucose concentration; assay: Blood-glucose time course up to 24 hours in rabbits (Table 4); assay type: in vivo; conditions: oral 5 mg/kg
Experimental: as §1, with “oxidase. […]” for “oxidase.”
(§5) The comparison of SPC-5002 and Glibornuride effect on changes in
concentration of rabbits in time up to 24 hours from the moment of the
in an oral dose containing 5 mg/kg body weight

glucose concentration = assay: Blood glucose in normal men volunteers (Table 7); assay type: in vivo; conditions: for Glucose concentration: oral 5 mg SPC-5002 or 12.5 mg Glibornuride
Experimental: as §1, §2, §3, §4

[7] = test system: blood-glucose concentration; assay: Blood-glucose time course up to 24 hours in rats (Table 3); assay type: in vivo; conditions: for glucose concentration in blood, average: oral 4 mg/kg
Experimental: as §1
(§6) (Table 2). […] It has been observed that even 9 hours after the administration of one dose of SPC-5002 to rats, the glucose level in blood was decreased, whereas in the case of Glibornuride the glucose level comes back to its normal value in 6 hours from the time of the administration.
as §5
concentration of rats in time up to 24 hours from the moment of the
in an oral dose containing 4 mg/kg body weight

[8] = test system: blood-glucose concentration; assay: ED30 oral hypoglycemic dose in mice (Table 2); assay type: in vivo
Experimental: as §1, §6

[9] = test system: blood-glucose concentration; assay: ED30 oral hypoglycemic dose in rabbits (Table 2); assay type: in vivo; conditions: Oryctolagus cuniculus, read-out: Effective oral doses ED30
Experimental: as §1, §6

With `COc1ccc(Cl)cc1C(=O)NCCc1ccc(S(=O)(=O)NC(=O)NC2CCCCC2)cc1` [Glibenclamide] the “% of inhibition, oxygen consumption” value ([1]; concentration 0.01 n M) was 26%, the “% of inhibition, oxygen consumption” value ([1]; concentration 0.02 n M) was 43% and the “% of inhibition, oxygen consumption” value ([1]; concentration 0.05 n M) was 60% and 63%. For the same compound, the “% of inhibition, oxygen consumption” value ([1]; concentration 0.1 n M) was 75%, the “% of inhibition, oxygen consumption” value ([1]; concentration 0.5 n M) was 87% and the Ki [1] was 30 µM. The “Calcium transmission / Oxide consumption (ratio of inhibition)” value ([2]; concentration 0.01 n M) was 0.46, the “% of inhibition, calcium transmission” value ([2]; concentration 0.01 n M) was 12% and the “Calcium transmission / Oxide consumption (ratio of inhibition)” value ([2]; concentration 0.02 n M) was 0.65. For the same compound, the “% of inhibition, calcium transmission” value ([2]; concentration 0.02 n M) was 28%, the “Calcium transmission / Oxide consumption (ratio of inhibition)” value ([2]; concentration 0.05 n M) was 0.82 and the “% of inhibition, calcium transmission” value ([2]; concentration 0.05 n M) was 52%. The “Calcium transmission / Oxide consumption (ratio of inhibition)” value ([2]; concentration 0.1 n M) was 0.90, the “% of inhibition, calcium transmission” value ([2]; concentration 0.1 n M) was 68% and the “Calcium transmission / Oxide consumption (ratio of inhibition)” value ([2]; concentration 0.5 n M) was 0.97. For the same compound, the “% of inhibition, calcium transmission” value ([2]; concentration 0.5 n M) was 85%, the Ki [2] was 47 µM and the “preference of inhibition: calcium transmission versus oxidizing processes” value [2] was “acts much stronger on oxidizing and phosphorylation processes than on the calcium transmission”. The “Ki ratio SPC-5002 / Glibenclamide, calcium transmission” value ([2]; ratio of inhibitor constants) was 10, the “% of inhibition, oxidizing phosphorylation” value ([3]; concentration 0.01 n M) was 29% and the “% of inhibition, oxidizing phosphorylation” value ([3]; concentration 0.02 n M) was 48%. For the same compound, the “% of inhibition, oxidizing phosphorylation” value ([3]; concentration 0.05 n M) was 60%, the “% of inhibition, oxidizing phosphorylation” value ([3]; concentration 0.1 n M) was 80% and the “% of inhibition, oxidizing phosphorylation” value ([3]; concentration 0.5 n M) was 100%. It also gave a Ki [3] of 22 µM.
With `CCCCNC(=O)NS(=O)(=O)c1ccc(C)cc1` [Tolbutamide] the “% of inhibition, oxygen consumption” value ([1]; concentration 1.0 n M) was 14%, the “Calcium transmission / Oxide consumption (ratio of inhibition)” value ([2]; concentration 1.0 n M) was 1.92 and the “% of inhibition, calcium transmission” value ([2]; concentration 1.0 n M) was 27%. For the same compound, the “preference of inhibition: calcium transmission versus oxidizing processes” value [2] was “preferential inhibiting of calcium transmission” and the “% of inhibition, oxidizing phosphorylation” value ([3]; concentration 1.0 n M) was 7%.
For `Cc1ccc(S(=O)(=O)NC(=O)N[C@H]2[C@H]3CC[C@@](C)([C@H]2O)C3(C)C)cc1` [Glibornuride, N-(p-toluenesulphonyl)-N'-(2-endo-hydroxy-3-endo-bornyl)-urea, reference compound], the ED30 [4] was 3.8 mg/kg, the “% of inhibition, oxygen consumption” value ([1]; concentration 0.5 n M) was 22% and the “% of inhibition, oxygen consumption” value ([1]; concentration 1.0 n M) was 47%. For the same compound, the Ki [1] was 1150 µM, the “Free fatty acids concentration” value ([5]; 0 mins (empty stomach)) was 0.76 mEq/1000 cc and the “Free fatty acids concentration” value ([5]; 30 mins) was 0.58 mEq/1000 cc. The “Free fatty acids concentration” value ([5]; 60 mins) was 0.46 mEq/1000 cc, the “Free fatty acids concentration” value ([5]; 90 mins) was 0.48 mEq/1000 cc and the “Free fatty acids concentration” value ([5]; 120 mins) was 0.51 mEq/1000 cc. For the same compound, the “Free fatty acids concentration” value ([5]; 180 mins) was 0.52 mEq/1000 cc, the Insulin concentration (insulin concentration; 0 mins (empty stomach)) was 3.6 μU/cc and the Insulin concentration (insulin concentration; 30 mins) was 4.2 μU/cc. For the same compound, the Insulin concentration (insulin concentration; 60 mins) was 6.2 μU/cc, the Insulin concentration (insulin concentration; 90 mins) was 5.2 μU/cc and the Insulin concentration (insulin concentration; 120 mins) was 6.4 μU/cc. The Insulin concentration (insulin concentration; 180 mins) was 4.4 μU/cc, the “Calcium transmission / Oxide consumption (ratio of inhibition)” value ([2]; concentration 0.5 n M) was 2.36 and the “% of inhibition, calcium transmission” value ([2]; concentration 0.5 n M) was 52%. The “Calcium transmission / Oxide consumption (ratio of inhibition)” value ([2]; concentration 1.0 n M) was 1.60, the “% of inhibition, calcium transmission” value ([2]; concentration 1.0 n M) was 76% and the Ki [2] was 490 µM. For the same compound, the “preference of inhibition: calcium transmission versus oxidizing processes” value [2] was “preferential inhibiting of calcium transmission”, the “glucose concentration in blood, average” value ([6]; 0 h) was 74 mg/100 cc and the “glucose concentration in blood, average” value ([6]; 0.5 h) was 62 mg/100 cc. The “glucose concentration in blood, average” value ([6]; 1 h) was 63 mg/100 cc, the “% of decrease /-/ or increase /+/ of blood glucose” value ([6]; 3 h) was 0% and the “glucose concentration in blood, average” value ([6]; 3 h) was 74 mg/100 cc. The “glucose concentration in blood, average” value ([6]; 6 h) was 75 mg/100 cc, the “glucose concentration in blood, average” value ([6]; 9 h) was 75 mg/100 cc and the “glucose concentration in blood, average” value ([6]; 24 h) was 78 mg/100 cc. The “decrease in glucose blood level at peak of activity” value (glucose concentration; dose 2.5 times that of SPC-5002 (12.5 mg)) was 19%, the Glucose concentration (glucose concentration; 0 mins (empty stomach)) was 91.0 mg/100 cc and the Glucose concentration (glucose concentration; 30 mins) was 87.0 mg/100 cc. It also gave a Glucose concentration (glucose concentration; 60 mins) of 80.0 mg/100 cc, a Glucose concentration (glucose concentration; 90 mins) of 74.0 mg/100 cc and a Glucose concentration (glucose concentration; 120 mins) of 75.0 mg/100 cc. The Glucose concentration (glucose concentration; 180 mins) was 76.0 mg/100 cc, the “duration of decreased blood glucose after one dose” value ([7]; one dose) was 6 h and the “glucose concentration in blood, average” value ([7]; 0 h) was 68 mg/100 cc. The “glucose concentration in blood, average” value ([7]; 1 h) was 48 mg/100 cc, the “glucose concentration in blood, average” value ([7]; 3 h) was 47 mg/100 cc and the “glucose concentration in blood, average” value ([7]; 6 h) was 65 mg/100 cc. The “glucose concentration in blood, average” value ([7]; 9 h) was 74 mg/100 cc, the “glucose concentration in blood, average” value ([7]; 24 h) was 77 mg/100 cc and the “ED30 relative to SPC-5002” value [8] was “almost three times as big as for SPC-5002”. The ED30 ([8]; Mus musculus, oral, read-out: Effective oral doses ED30) was 5.2 mg/kg, the “% of inhibition, oxidizing phosphorylation” value ([3]; concentration 0.5 n M) was 32% and the “% of inhibition, oxidizing phosphorylation” value ([3]; concentration 1.0 n M) was 59%. It also gave a Ki [3] of 760 µM and an ED30 [9] of 7.6 mg/kg.
